From PMC9070634 (Cell, 2021)

What was measured:
[1] = biological target: T1, BcPycTIR (Burkholderia cepacia, UniProt A0A0J5WTU0); experiment: HPLC of NAD+ cleavage; type: biochemical; settings: 500 uM NAD+, 500 nM protein, 250 nM cUMP as activator, 25 C, 1 h
T1 sequence (A0A0J5WTU0 1-303): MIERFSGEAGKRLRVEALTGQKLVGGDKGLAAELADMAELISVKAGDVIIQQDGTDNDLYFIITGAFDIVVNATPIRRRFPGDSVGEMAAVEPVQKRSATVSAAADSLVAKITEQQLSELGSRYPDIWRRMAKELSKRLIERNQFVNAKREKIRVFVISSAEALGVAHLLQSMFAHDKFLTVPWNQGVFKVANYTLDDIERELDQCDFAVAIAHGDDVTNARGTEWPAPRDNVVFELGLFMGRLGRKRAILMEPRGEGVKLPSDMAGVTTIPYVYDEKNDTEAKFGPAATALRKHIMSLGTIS

[2] = biological target: PaPycC (Pseudomonas aeruginosa, UniProt P0DV40); experiment: thin-layer chromatography with alpha-32P-UTP; type: biochemical; settings: labelled compound (trace); 10 mM MgCl2, 1 mM MnCl2, pH 8.5, 37 C
[3] = biological target: T2, BcPycC (Burkholderia cepacia, UniProt A0A0J5ZXG5); experiment: HPLC; type: biochemical; settings: 10 mM MgCl2, 1 mM MnCl2, 37 C
T2 sequence (A0A0J5ZXG5 1-229 limits assumed): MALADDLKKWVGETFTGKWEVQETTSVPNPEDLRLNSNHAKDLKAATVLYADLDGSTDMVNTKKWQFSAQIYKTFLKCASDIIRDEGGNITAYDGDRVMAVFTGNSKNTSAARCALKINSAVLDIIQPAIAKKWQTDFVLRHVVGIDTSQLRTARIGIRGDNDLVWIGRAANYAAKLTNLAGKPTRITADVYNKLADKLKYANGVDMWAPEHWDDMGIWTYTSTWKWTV

[4] = biological target: T1, BcPycTIR; experiment: fluorescence plate reader, initial rates; type: biochemical; settings: 500 uM substrate, 1 uM protein, cUMP as activator, pH 7.5, 100 mM KCl
[5] = biological target: the molecule itself; experiment: negative stain electron microscopy
[6] = biological target: the molecule itself; experiment: crystal structure

Chain of PaPycC (P0DV40 whole entry): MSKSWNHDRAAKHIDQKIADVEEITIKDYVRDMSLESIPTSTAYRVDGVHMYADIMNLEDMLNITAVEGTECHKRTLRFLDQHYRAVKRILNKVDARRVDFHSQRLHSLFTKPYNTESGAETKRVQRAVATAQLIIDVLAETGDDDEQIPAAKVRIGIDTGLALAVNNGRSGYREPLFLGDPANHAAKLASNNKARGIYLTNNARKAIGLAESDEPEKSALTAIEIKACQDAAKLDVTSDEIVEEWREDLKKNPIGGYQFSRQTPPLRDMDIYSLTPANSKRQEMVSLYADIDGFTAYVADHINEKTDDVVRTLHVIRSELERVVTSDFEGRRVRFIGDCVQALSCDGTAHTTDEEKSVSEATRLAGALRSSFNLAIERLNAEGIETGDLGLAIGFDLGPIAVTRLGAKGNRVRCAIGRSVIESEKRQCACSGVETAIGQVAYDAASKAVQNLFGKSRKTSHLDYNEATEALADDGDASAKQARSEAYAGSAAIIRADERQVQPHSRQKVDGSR

Molecule: NC(=O)c1ccc[n+]([C@@H]2O[C@H](COP(=O)(O)OP(=O)(O)OC[C@H]3O[C@@H](n4cnc5c(N)ncnc54)[C@H](O)[C@@H]3O)[C@@H](O)[C@H]2O)c1 [NAD^+]
- HPLC of NAD+ cleavage [1]: Incubation of BcPycTIR with cUMP triggered robust NADase activity

Molecule: O=c1ccn([C@@H]2O[C@H](COP(=O)(O)OP(=O)(O)OP(=O)(O)O)[C@@H](O)[C@H]2O)c(=O)[nH]1 [UTP]
- thin-layer chromatography with alpha-32P-UTP [2]: demonstrated that PaPycC is an active uridylate cyclase

Molecule: O=c1ccn([C@@H]2O[C@@H]3COP(=O)(O)O[C@H]3[C@H]2O)c(=O)[nH]1 [cUMP]
- HPLC; MSMS against standard [3]: MSMS fragmentation spectra of a cUMP standard (bottom) and the BcPycC cyclase product (top)

Molecule: NC(=O)c1ccc[n+]([C@@H]2O[C@H](COP(=O)(O)OP(=O)(O)OC[C@H]3O[C@@H](n4cnc5c4ncn4ccnc54)[C@H](O)[C@@H]3O)[C@@H](O)[C@H]2O)c1 [ε-NAD^+]
- fluorescence plate reader, initial rates [4]: NAD^+ cleavage activity of BcPycTIR using the fluorescent substrate ε-NAD^+

B1: TIR-domain effector protein from Burkholderia cepacia LK29 (BcPycTIR) (enzyme)
chain: T1 sequence (A0A0J5WTU0 1-303)
- binding result [5]: binds

B2: clade B uridylate cyclase from Burkholderia cepacia LK29 (BcPycC) (enzyme)
chain: ALADDLKKWVGETFTGKWEVQETTSVPNPEDLRLNSNHAKDLKAATVLYADLDGSTDMVNTKKWQFSAQIYKTFLKCASDIIRDEGGNITAYDGDRVMAVFTGNSKNTSAARCALKINSAVLDIIQPAIAKKWQTDFVLRHVVGIDTSQLRTARIGIRGDNDLVWIGRAANYAAKLTNLAGKPTRITADVYNKLADKLKYANGVDMWAPEHWDDMGIWTYTSTWKWTV
- binding result [6]: binds
